Each structure is given as a SMILES string.

What all share (assay type): binding
Assay [1] has as its target T1, BRD4 (Homo sapiens, UniProt O60885). The assay is described as follows: BromoKd affinity assay (Eurofins Discovery).
In assay [2] the target is T2, BRD3 (Homo sapiens, UniProt Q15059). The assay is described as follows: BromoKd affinity assay (Eurofins Discovery).
Assay [3] deals with T3, BRD2 (Homo sapiens, UniProt P25440). The assay is described as follows: BromoKd affinity assay (Eurofins Discovery). Set-up: second bromodomain BD2, BRD2(2).
Target sequence in this assay (P25440 344-453 limits assumed): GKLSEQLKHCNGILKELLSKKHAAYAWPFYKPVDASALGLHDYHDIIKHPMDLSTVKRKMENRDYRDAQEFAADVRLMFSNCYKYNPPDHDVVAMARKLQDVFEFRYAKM
Assay [4] deals with T1, BRD4. Put plainly: BromoKd affinity assay (Eurofins Discovery); cellular degradation competed by HPI-1.
In assay [5] the target is T2, BRD3. The assay is described as above.
Assay [6] deals with T3, BRD2. Described as above.
Target sequence in this assay (P25440 whole entry): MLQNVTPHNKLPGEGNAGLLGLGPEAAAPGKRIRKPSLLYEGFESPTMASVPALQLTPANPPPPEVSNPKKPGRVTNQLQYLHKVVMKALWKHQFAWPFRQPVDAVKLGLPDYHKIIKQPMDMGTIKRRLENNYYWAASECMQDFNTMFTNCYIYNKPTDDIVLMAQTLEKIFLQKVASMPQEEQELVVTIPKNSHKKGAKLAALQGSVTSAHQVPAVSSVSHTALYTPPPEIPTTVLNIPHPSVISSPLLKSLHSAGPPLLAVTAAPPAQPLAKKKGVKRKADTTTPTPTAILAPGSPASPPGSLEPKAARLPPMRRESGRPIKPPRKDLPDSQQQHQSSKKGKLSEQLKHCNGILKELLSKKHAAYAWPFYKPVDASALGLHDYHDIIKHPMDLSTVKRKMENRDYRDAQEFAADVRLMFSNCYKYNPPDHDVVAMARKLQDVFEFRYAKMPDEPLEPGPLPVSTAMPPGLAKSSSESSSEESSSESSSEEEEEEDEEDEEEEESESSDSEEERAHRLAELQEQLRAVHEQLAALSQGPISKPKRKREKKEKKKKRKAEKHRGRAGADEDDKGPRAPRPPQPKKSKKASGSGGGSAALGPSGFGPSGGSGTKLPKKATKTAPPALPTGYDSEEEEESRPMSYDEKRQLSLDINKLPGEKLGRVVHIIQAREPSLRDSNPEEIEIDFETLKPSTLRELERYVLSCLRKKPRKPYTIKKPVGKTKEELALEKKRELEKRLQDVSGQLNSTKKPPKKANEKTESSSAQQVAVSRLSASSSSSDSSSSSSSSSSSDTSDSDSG

T2 sequence (Q15059 2-726): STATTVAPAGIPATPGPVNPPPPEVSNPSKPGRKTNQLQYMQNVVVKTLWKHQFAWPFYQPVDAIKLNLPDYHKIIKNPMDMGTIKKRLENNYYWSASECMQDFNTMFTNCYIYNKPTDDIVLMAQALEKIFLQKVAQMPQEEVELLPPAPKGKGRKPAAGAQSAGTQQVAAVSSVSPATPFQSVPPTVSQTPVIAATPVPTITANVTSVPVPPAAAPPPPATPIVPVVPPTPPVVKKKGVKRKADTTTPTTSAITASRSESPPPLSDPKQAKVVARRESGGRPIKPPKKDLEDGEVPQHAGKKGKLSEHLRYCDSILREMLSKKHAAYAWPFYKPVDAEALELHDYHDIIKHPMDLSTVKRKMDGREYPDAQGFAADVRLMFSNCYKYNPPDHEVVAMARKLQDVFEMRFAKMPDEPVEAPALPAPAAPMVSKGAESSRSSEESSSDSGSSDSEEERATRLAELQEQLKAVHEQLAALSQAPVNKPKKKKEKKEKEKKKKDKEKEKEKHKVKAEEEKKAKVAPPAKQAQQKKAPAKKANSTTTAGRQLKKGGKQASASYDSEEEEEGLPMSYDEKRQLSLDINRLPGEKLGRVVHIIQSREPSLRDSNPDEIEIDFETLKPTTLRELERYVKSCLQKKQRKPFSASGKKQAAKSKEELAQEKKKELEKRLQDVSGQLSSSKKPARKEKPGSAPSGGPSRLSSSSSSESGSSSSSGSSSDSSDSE

With `COCCOC(=O)C1=C(C)NC2=C(C(=O)CC(c3ccccc3OC)C2)C1c1cccc(O)c1` (stereo not drawn) [HPI-1], the Kd (usually a measure of binding affinity in units of concentration) in assay [1] was around 15 nM; in assay [2], around 15 nM; in assay [3], 17 nM.
As to `COCCOC(=O)C1=C(C)NC2=C(C(=O)CC(c3ccccc3OC)C2)C1c1cccc(OCc2cn(CCCCCCOc3cccc4c3C(=O)N(C3CCC(=O)NC3=O)C4=O)nn2)c1` (stereo not drawn) [HPP-9], the Kd in assay [4], in assay [5] and in assay [6] was around 200 nM in each case.
